Legend:
[1] = system: rat; details: Subchronic oral toxicity in rodents, sprague dawley, Feed, dose end: 13 week, group: systemic
[2] = system: rat; details: Prenatal developmental toxicity study, sprague dawley, Oral, Gavage/Intubation, dose end: 20 GD
[3] = system: rat; details: Sub-acute repeat dose toxicity; wistar; Oral; Feed; dose end: 21 day; group: systemic; systemic / clinical chemistry / [other] / [other] + systemic / clinical chemistry / 5' nucleotidase / 5' nucleotidase + systemic / organ …
[4] = system: rat; details: Developmental neurotoxicity study; sprague dawley; Injection; Intraperitoneal; dose end: 74 PND; group: cannot be grouped; reproductive / reproductive performance / aborted / aborted + developmental / offspring survival late / [other] / [other] + systemic / in …
[5] = system: dog; details: Subchronic oral toxicity in nonrodent, beagle, Feed, dose end: 6 month, group: systemic, systemic / clinical chemistry / alkaline phosphatase (alp/alk) / alkaline phosphatase (alp/alk) + systemic / organ weight / liver / absolute…
[6] = system: mouse; details: Subchronic oral toxicity in rodents, Feed, dose end: 90 day, group: systemic
[7] = system: dog; details: Chronic toxicity, beagle, Oral, Feed, dose end: 6 month, group: systemic
[8] = system: rat; details: Prenatal developmental toxicity study, other, Oral, Gavage/Intubation, dose end: 15 GD
[9] = system: rat; details: Subchronic oral toxicity in rodents, Feed, dose end: 90 day, group: systemic
[10] = system: mouse; details: Carcinogenicity; other; Oral; Feed; dose end: 104 week; group: systemic; systemic / pathology microscopic / liver / vacuolization
[11] = system: rat; details: Combined chronic toxicity/carcinogenicity, sprague dawley, Oral, Feed, dose end: 105 week, group: systemic
[12] = system: rat; details: Multigenerational reproductive toxicity study, other, Oral, Feed, dose end: 2 generation
[13] = system: mouse; details: Subchronic oral toxicity in rodents, cd1, Feed, dose end: 13 week, group: systemic
[14] = system: rat; details: Combined chronic toxicity/carcinogenicity, fischer, Oral, Feed, dose end: 24 month, group: systemic
[15] = system: mouse; details: Carcinogenicity, cd1, Oral, Feed, dose end: 82 week, group: systemic
[16] = system: rat; details: Subchronic oral toxicity in rodents, sprague dawley, Feed, dose end: 90 day, group: systemic
[17] = system: dog; details: Subchronic oral toxicity in nonrodent, beagle, Capsule, dose end: 90 day, group: systemic, systemic / clinical chemistry / albumin-globulin ratio / albumin-globulin ratio + systemic / clinical chemistry / cholesterol / cholesterol…
[18] = system: dog; details: Chronic toxicity; beagle; Oral; Capsule; dose end: 52 week; group: systemic; systemic / in life observation / clinical signs / abnormal movements + systemic / in life observation / clinical signs / altered breathing …
[19] = system: dog; details: Subchronic oral toxicity in nonrodent, beagle, Feed, dose end: 16 week, group: systemic, systemic / in life observation / body weight / body weight
[20] = system: rat; details: Subchronic oral toxicity in rodents, sprague dawley, Feed, dose end: 3 month, group: systemic, systemic / in life observation / body weight / body weight + systemic / in life observation / body weight / body weight gain
[21] = system: rat; details: Subchronic oral toxicity in rodents, sprague dawley, Feed, dose end: 13 week, group: systemic, systemic / in life observation / body weight / body weight + systemic / in life observation / body weight / body weight gain + systemic / in…
[22] = systemic / in life observation / body weight / body weight gain + systemic / in life observation / food consumption / food efficiency + …
[23] = group: developmental, developmental / developmental malformation / bone / delayed ossification + developmental / developmental malformation / bone / supernumerary…
[24] = group: maternal, reproductive / reproductive performance / postimplantation loss / postimplantation loss + reproductive / reproductive performance / …
[25] = group: maternal, systemic / clinical chemistry / [other] / [other] + systemic / organ weight / liver / absolute + systemic / organ weight / liver / relative …
[26] = systemic / organ weight / liver / absolute + systemic / organ weight / liver / relative to body weight
[27] = systemic / organ weight / liver / absolute + systemic / organ weight / liver / relative to body weight + systemic / clinical chemistry / …
[28] = systemic / clinical chemistry / alkaline phosphatase (alp/alk) / alkaline phosphatase (alp/alk) + systemic / hematology / erythrocyte (rbc) …
[29] = group: developmental, developmental / developmental malformation / bone / absent + developmental / developmental malformation / bone / incomplete ossification + …
[30] = group: maternal, systemic / in life observation / clinical signs / convulsions + systemic / in life observation / clinical signs / fur (altered appearance…
[31] = systemic / organ weight / liver / absolute + systemic / organ weight / liver / relative to body weight + systemic / pathology microscopic / …
[32] = systemic / pathology microscopic / liver / vacuolization
[33] = systemic / pathology microscopic / liver / vacuolization + systemic / organ weight / liver / absolute + systemic / organ weight / liver / …
[34] = group: offspring, systemic / in life observation / body weight / offspring (pup) weight
[35] = group: parental, systemic / in life observation / body weight / body weight + systemic / in life observation / body weight / body weight gain + systemic / …
[36] = systemic / clinical chemistry / creatinine / creatinine
[37] = systemic / in life observation / body weight / body weight gain
[38] = systemic / organ weight / thyroid gland / absolute + systemic / organ weight / thyroid gland / relative to body weight
[39] = systemic / clinical chemistry / albumin / albumin + systemic / clinical chemistry / cholesterol / cholesterol + systemic / clinical …

Cn1sc2c(c1=O)CCC2 [2-Methyl-5,6-dihydro-2H-cyclopenta[d][1,2]thiazol-3(4H)-one]
LOAEL ([1]; systemic / in life observation / body weight / body weight gain + systemic / in life observation / food consumption / food efficiency): 23.2 mg/kg/day | LEL [1, 22]: 23.2 mg/kg/day | NEL [1, 22]: 4.6 mg/kg/day | NOAEL [1, 22]: 4.6 mg/kg/day

CCCCCCOC(=O)c1ccccc1C(=O)OCCCCCC [Dihexyl phthalate]
LEL [2, 23]: 250 mg/kg/day | LOAEL [2, 23]: 250 mg/kg/day | NEL [2, 23]: < 250 mg/kg/day | NOAEL [2, 23]: < 250 mg/kg/day | LOAEL [2, 24]: > 750 mg/kg/day | NOAEL [2, 24]: ≥ 750 mg/kg/day | LEL [2, 25]: 250 mg/kg/day | NEL [2, 25]: < 250 mg/kg/day | LEL [3]: 1000 mg/kg/day | LOAEL [3]: > 1000 mg/kg/day | NEL [3]: < 1000 mg/kg/day | NOAEL [3]: ≥ 1000 mg/kg/day

NC(=O)NO [Hydroxyurea]
LEL [4]: 2000 mg/kg/day | LOAEL [4]: > 2000 mg/kg/day | NEL [4]: < 2000 mg/kg/day | NOAEL [4]: ≥ 2000 mg/kg/day

COCC(=O)N(c1c(C)cccc1C)C(C)C(=O)OC (stereo unspecified) [Metalaxyl]
LEL [5]: 30.6 mg/kg/day | LOAEL [5]: 30.6 mg/kg/day | NEL [5]: 7.8 mg/kg/day | NOAEL [5]: 7.8 mg/kg/day | LEL [6, 26]: 188 mg/kg/day | NEL [6, 26]: < 188 mg/kg/day | LOAEL [6, 27]: > 750 mg/kg/day | NOAEL [6, 27]: ≥ 750 mg/kg/day | LOAEL ([7]; systemic / clinical chemistry / alkaline phosphatase (alp/alk) / alkaline phosphatase (alp/alk)): 30.6 mg/kg/day | LEL [7, 28]: 30.6 mg/kg/day | NEL [7, 28]: 7.8 mg/kg/day | NOAEL [7, 28]: 7.8 mg/kg/day | LEL [8, 29]: 400 mg/kg/day | LOAEL [8, 29]: 400 mg/kg/day | NEL [8, 29]: 250 mg/kg/day | NOAEL [8, 29]: 250 mg/kg/day | LEL [8, 30]: 250 mg/kg/day | LOAEL [8, 30]: 250 mg/kg/day | NEL [8, 30]: 50 mg/kg/day | NOAEL [8, 30]: 50 mg/kg/day | LEL [9, 26]: 2.5 mg/kg/day | NEL [9, 26]: < 2.5 mg/kg/day | LOAEL [9, 31]: > 62.5 mg/kg/day | NOAEL [9, 31]: ≥ 62.5 mg/kg/day | LEL [10]: 129 mg/kg/day | LOAEL [10]: 129 mg/kg/day | NEL [10]: 24.9 mg/kg/day | NOAEL [10]: 24.9 mg/kg/day | LEL [11, 32]: 1.88 mg/kg/day | NEL [11, 32]: < 1.88 mg/kg/day | LOAEL [11, 33]: 46.6 mg/kg/day | NOAEL [11, 33]: 9.43 mg/kg/day

C#CCC1=C(C)C(OC(=O)C2C(C=C(C)C)C2(C)C)CC1=O (stereo unspecified) [Prallethrin]
LEL [12, 34]: 156 mg/kg/day | LOAEL [12, 34]: 156 mg/kg/day | NEL [12, 34]: 31 mg/kg/day | NOAEL [12, 34]: 31 mg/kg/day | LOAEL [12, 35]: 156 mg/kg/day | NEL [12, 35]: 6 mg/kg/day | NOAEL [12, 35]: 31 mg/kg/day | LEL ([12]; group: parental, systemic / in life observation / body weight / body weight gain): 31 mg/kg/day | LEL [13, 36]: 39 mg/kg/day | NEL [13, 36]: < 39 mg/kg/day | LOAEL ([13]; systemic / in life observation / body weight / body weight + systemic / in life observation / body weight / body weight gain): 1840 mg/kg/day | NOAEL ([13]; systemic / in life observation / body weight / body weight + systemic / in life observation / body weight / body weight gain + systemic / …): 808 mg/kg/day | LOAEL [14, 37]: 83.5 mg/kg/day | NOAEL ([14]; systemic / in life observation / body weight / body weight gain + systemic / clinical chemistry / cholesterol / cholesterol + systemic / …): 16.3 mg/kg/day | LEL [14, 38]: 4 mg/kg/day | NEL [14, 38]: < 4 mg/kg/day | LOAEL [15, 37]: 347 mg/kg/day | NOAEL ([15]; systemic / in life observation / body weight / body weight gain + systemic / organ weight / liver / nos): 68 mg/kg/day | LEL ([15]; systemic / in life observation / clinical signs / fur (altered appearance)): 68 mg/kg/day | NEL ([15]; systemic / in life observation / clinical signs / fur (altered appearance) + systemic / organ weight / kidney / nos + systemic / organ …): 13 mg/kg/day | LOAEL [16, 39]: 230 mg/kg/day | NEL [16, 39]: 24 mg/kg/day | NOAEL [16, 39]: 79.1 mg/kg/day | LEL ([16]; systemic / clinical chemistry / protein / protein + systemic / organ weight / kidney / absolute + systemic / hematology / eosinophils / …): 79.1 mg/kg/day | LEL [17]: 10 mg/kg/day | LOAEL [17]: 10 mg/kg/day | NEL [17]: 3 mg/kg/day | NOAEL [17]: 3 mg/kg/day | LEL [18]: 5 mg/kg/day | LOAEL [18]: 5 mg/kg/day | NEL [18]: 2.5 mg/kg/day | NOAEL [18]: 2.5 mg/kg/day

CCc1cccc(C)c1N(C(=O)CCl)[C@@H](C)COC [S-Metolachlor]
LEL [19]: 31.1 mg/kg/day | LOAEL [19]: > 62 mg/kg/day | NEL [19]: 15.1 mg/kg/day | NOAEL [19]: ≥ 62 mg/kg/day | LEL [20]: 259 mg/kg/day | LOAEL [20]: 259 mg/kg/day | NEL [20]: 23.4 mg/kg/day | NOAEL [20]: 23.4 mg/kg/day | LEL [21]: 150 mg/kg/day | LOAEL [21]: 150 mg/kg/day | NEL [21]: 15 mg/kg/day | NOAEL [21]: 15 mg/kg/day

From EPA's ToxRefDB 2
